Source: patent publication US20150209426A1, “TREATMENT OF CANCER” (Boehringer Ingelheim International GmbH, priority 2014, published 2015)

Tests used:
MCF7aro cells = assay: Cell proliferation assay of adherently growing MCF7aro breast cancer cells (AlamarBlue cell viability); assay type: cell-based, human; details: 6 days of incubation, mean of three independent experiments, everolimus up to 50 nM, exemestane up to 200 nM, triple combination with fixed 10 nM IGF Ab 60833
Experimental: Three independent experiments were conducted to determine the anti-proliferative effect of IGF Ab 60833 in combination with everolimus and exemestane in MCF7aro breast cancer cells. Cell proliferation and viability following 6 days of incubation with test compounds was determined using an assay that monitors the reducing environment of the living cells in each assay well.
For cell proliferation assays and Western Blot analysis the cells were steroid-deprived for 72 h by cultivation in starvation medium (MEM alpha without phenol red, supplemented with 10% charcoal stripped FBS, 2 mM GlutaMAX and 1 mM sodium pyruvate). […]
The final concentration of the solvent DMSO in the test wells was 0.1%. Everolimus and exemestane were tested at 5 concentrations, each measured in duplicate wells, as single agents or in combination.
After 2 days of incubation with test compounds in a humidified incubator at 37° C. and 5% CO2, medium was changed to fresh assay medium and compounds were added again. […] Total fluorescence intensity of each well was then measured in a Wallac VICTOR Multilabel Counter using an excitation wavelength of 544 nm and measuring emission at 590 nm.
At the time of test compound addition, “time zero” (t=0) untreated cell plates were stained with AlamarBlue® Cell Viability Reagent. […] After incubation for 6 hours at 37° C. and 5% CO2, total fluorescence intensity was measured. […]

[1] = tested on: AKT and S6 phosphorylation in MCF7aro cells; assay: Western blot assessment of AKT and S6 phosphorylation status in MCF7aro cell lysates; assay type: cell-based, human; details: 24 hours, 100 nM IGF Ab 60833, 0.32 nM everolimus, versus vehicle (DMSO) control
Experimental: 1.8×10^6 MCF7aro cells were plated in 10 cm dishes in starvation medium (MEM alpha without phenol red, supplemented with 10% charcoal stripped FBS, 2 mM GlutaMAX and […]). After overnight incubation, medium was changed to assay medium (MEM alpha without phenol red, supplemented with 10% charcoal stripped FBS, 2 mM GlutaMAX, 1 mM sodium pyruvate and 1 nM androstenedione) and the cells were treated with 100 nM of IGF Ab 60833 or 0.32 nM of everolimus or a combination of antibody and mTORC1 inhibitor. As a control, cells were treated with vehicle (DMSO) only. At 24 h post treatment, the cells were lysed on ice with MSD Tris Lysis Buffer containing 20 mM Tris pH 7.5, 150 mM NaCl, 1 mM EDTA, 1 mM EGTA, 1% Triton X-100, completed with protease and phosphatase inhibitor cocktails. Prior to use, freshly prepared 2 mM PMSF was added to the buffer.
(§1) Total protein was isolated and protein concentration was quantified by Bradford protein assay according to the manufacturer's instructions. […]
The effect of IGF Ab 60833 and everolimus, as single agents and in combination, on the phosphorylation of AKT at serine 473 (pAKT S473) and threonine 308 (pAKT T308), and of S6 (pS6) at serine 235/236 was monitored by Western blot analysis of MCF7aro cell lysates prepared 24 hours post treatment.

[2] = tested on: cleaved PARP in MCF7aro cells; assay: Cleaved PARP (apoptosis) in MCF7aro cell lysates by Western blot and MSD Apoptosis Panel; assay type: cell-based, human; details: 72 h, 1 μM of each agent, versus vehicle-treated control
Experimental: 1.5×10^6 MCF7aro cells were plated in 10 cm dishes in starvation medium (MEM alpha without phenol red, supplemented with 10% charcoal stripped FBS, 2 mM GlutaMAX and 1 mM sodium pyruvate). After overnight incubation, medium was changed to assay medium (MEM alpha without phenol red, supplemented with 10% charcoal stripped FBS, 2 mM GlutaMAX, 1 mM sodium pyruvate and 1 nM androstenedione) and the cells were treated with vehicle (DMSO), or 1 μM of IGF Ab 60833, or 1 μM exemestane, or 1 μM everolimus, or a combination of exemestane and everolimus, or a combination of all three inhibitors. At 72 h post treatment, the cells were lysed on ice with MSD Tris Lysis Buffer containing 20 mM Tris pH 7.5, 150 mM NaCl, 1 mM EDTA, 1 mM EGTA, 1% Triton X-100, completed with protease and phosphatase inhibitor cocktails. Prior to use, freshly prepared 2 mM PMSF was added to the buffer.
as §1
Cells lysates were prepared according to the Meso Scale Discovery cell lysis protocol. 20 μg of clarified lysate was analyzed in duplicates with MSD Apoptosis Panel Whole Cell Lysate Kit, measuring cleaved PARP signals, according to the manufacturer's instructions. Plates were read on the SECTOR Imager 6000 plate reader.

[3] = tested on: advanced hormone receptor-positive, HER2-negative breast cancer; details: cited from earlier work
[4] = tested on: hormone refractory, hormone receptor-positive, HER2-negative metastatic breast cancer; details: hormone refractory HR+, HER2-negative metastatic breast cancer patients; cited from earlier work

## CO[C@H]1C[C@@H]2CC[C@@H](C)[C@@](O)(O2)C(=O)C(=O)N2CCCC[C@H]2C(=O)O[C@H]([C@H](C)C[C@@H]2CC[C@@H](OCCO)[C@H](OC)C2)CC(=O)[C@H](C)/C=C(\C)[C@@H](O)[C@@H](OC)C(=O)[C@H](C)C[C@H](C)/C=C/C=C/C=C/1C [everolimus]
MCF7aro cells
  maximal mean CGI (cell growth inhibition): 47%
[1]
  pAKT S473 and T308 levels by Western blot: increased compared to the vehicle (DMSO)-treated control
  pS6 (S235/236) signal by Western blot: reduced pS6 signal
[2]
  levels of cleaved PARP (marker for apoptosis): comparable to or only marginally higher than the level in the vehicle-treated control

## C=C1C[C@@H]2[C@H](CC[C@]3(C)C(=O)CC[C@@H]23)[C@@]2(C)C=CC(=O)C=C12 [exemestane, 6-Methylideneandrosta-1,4-diene-3,17-dione]
MCF7aro cells
  maximal mean CGI (cell growth inhibition): 60%
[2]
  levels of cleaved PARP (marker for apoptosis): comparable to or only marginally higher than the level in the vehicle-treated control
[3]; by local investigator assessment
  median progression-free survival: 3.2 months
[3]; in vivo
  overall response rate: 1.7%

## CC/C(=C(\c1ccccc1)c1ccc(OCCN(C)C)cc1)c1ccccc1 [tamoxifen]
[4]
  time to progression (PFS): 4.5 months
